Converted amounts (≈) assume the structure as drawn. Where a SMILES comes first, the peptide text is derived from it. Side-chain parts run from the residue outwards.
Key:
Staphylococcus aureus = assay: Antibacterial activity against Staphylococcus aureus ATCC 25923 assessed as inhibition of bacterial growth incubated for 20 hrs by broth microdilution method; format: functional
Bacillus subtilis = assay: Antibacterial activity against Bacillus subtilis ATCC 23857 assessed as inhibition of bacterial growth incubated for 20 hrs by broth microdilution method; format: functional
Acinetobacter baumannii = assay: Antibacterial activity against Acinetobacter baumannii ATCC 19606 assessed as inhibition of bacterial growth incubated for 20 hrs by broth microdilution method; format: functional
Klebsiella pneumoniae = assay: Antibacterial activity against Klebsiella pneumoniae ATCC 700603 assessed as inhibition of bacterial growth incubated for 20 hrs by broth microdilution method; format: functional
Escherichia coli = assay: Antibacterial activity against Escherichia coli ATCC 25922 assessed as inhibition of bacterial growth incubated for 20 hrs by broth microdilution method; format: functional
Pseudomonas aeruginosa = assay: Antibacterial activity against Pseudomonas aeruginosa ATCC 27853 assessed as inhibition of bacterial growth incubated for 20 hrs by broth microdilution method; format: functional
Erythrocyte = assay: Hemolytic activity in mouse erythrocytes assessed as 10% hemolysis incubated for 1 hr by absorbance based analysis; format: toxicity, cell-based
[1] = Cytotoxicity against HEK293T cells assessed as cell death measured after 1 hr by resazurin dye based analysis; format: toxicity, HEK-293T; settings: human, HEK293T cells

| Compound | MIC (Staphylococcus aureus) | MIC (Bacillus subtilis) | MIC (Acinetobacter baumannii) | MIC (Klebsiella pneumoniae) | MIC (Escherichia coli) | MIC (Pseudomonas aeruginosa) | MHC10 (Erythrocyte) | CC50 at 1 h [1] |
| --- | --- | --- | --- | --- | --- | --- | --- | --- |
| N=C(N)NCCC[C@H](N)C(=O)NCCCC[C@H](NC(=O)[C@@H](N)CCCNC(=N)N)C(=O)N[C@@H](Cc1c[nH]c2ccccc12)C(N)=O (H-Arg-Lys(Arg)-Trp-NH2) | > 128 µM | > 128 µM | > 128 µM | > 128 µM | > 128 µM | > 128 µM | > 256 µM | > 128 µM |
| N=C(N)NCCC[C@H](NC(=O)[C@@H](N)CCCNC(=N)N)C(=O)NCCCC[C@H](NC(=O)[C@H](CCCNC(=N)N)NC(=O)[C@@H](N)CCCNC(=N)N)C(=O)N[C@@H](Cc1c[nH]c2ccccc12)C(=O)N[C@@H](Cc1c[nH]c2ccccc12)C(=O)N[C@@H](Cc1c[nH]c2ccccc12)C(=O)N[C@@H](Cc1c[nH]c2ccccc12)C(=O)N[C@@H](Cc1c[nH]c2ccccc12)C(N)=O (H-RRK([Arg-Arg])WWWWW-NH2) | 16 µM (≈ 27.2 µg/mL) | 8 µM (≈ 13.6 µg/mL) | 32 µM (≈ 54.4 µg/mL) | 16 µM (≈ 27.2 µg/mL) | 16 µM (≈ 27.2 µg/mL) | 16 µM (≈ 27.2 µg/mL) | 51.32 µM | 58.8 µM |
| N=C(N)NCCC[C@H](NC(=O)[C@H](CCCNC(=N)N)NC(=O)[C@H](CCCNC(=N)N)NC(=O)[C@H](CCCNC(=N)N)NC(=O)[C@H](CCCNC(=N)N)NC(=O)[C@H](CCCNC(=N)N)NC(=O)[C@H](CCCCNC(=O)[C@H](Cc1c[nH]c2ccccc12)NC(=O)[C@H](Cc1c[nH]c2ccccc12)NC(=O)[C@@H](N)Cc1c[nH]c2ccccc12)NC(=O)[C@H](Cc1c[nH]c2ccccc12)NC(=O)[C@H](Cc1c[nH]c2ccccc12)NC(=O)[C@@H](N)Cc1c[nH]c2ccccc12)C(N)=O (H-WWWK([Trp-Trp-Trp])RRRRRR-NH2) | 16 µM (≈ 35.2 µg/mL) | 8 µM (≈ 17.6 µg/mL) | 32 µM (≈ 70.4 µg/mL) | 32 µM (≈ 70.4 µg/mL) | 32 µM (≈ 70.4 µg/mL) | 16 µM (≈ 35.2 µg/mL) | 17.61 µM | 41.7 µM |
| CN[C@H](CC(C)C)C(=O)N[C@H]1C(=O)N[C@@H](CC(N)=O)C(=O)N[C@H]2C(=O)N[C@H]3C(=O)N[C@H](C(=O)N[C@H](C(=O)O)c4cc(O)cc(O)c4-c4cc3ccc4O)[C@H](O)c3ccc(c(Cl)c3)Oc3cc2cc(c3O[C@@H]2O[C@H](CO)[C@@H](O)[C@H](O)[C@H]2O[C@H]2C[C@](C)(N)[C@H](O)[C@H](C)O2)Oc2ccc(cc2Cl)[C@H]1O [VANCOMYCIN] | < 1 µM | < 1 µM | 64 µM (≈ 92.8 µg/mL) | 128 µM (≈ 186 µg/mL) | 64 µM (≈ 92.8 µg/mL) | > 128 µM |  |  |
| H-WWWWKRRRRR-NH2 | 8 µM | 8 µM | 32 µM | 32 µM | 16 µM | 16 µM | > 256 µM | 116 µM |
| H-WWWWWWKRRRRR-NH2 | 8 µM | 8 µM | 16 µM | 32 µM | 16 µM | 16 µM | 29.45 µM | 44.9 µM |
| N=C(N)NCCC[C@H](NC(=O)[C@H](CCCNC(=N)N)NC(=O)[C@H](CCCCNC(=O)[C@@H](N)Cc1c[nH]c2ccccc12)NC(=O)[C@@H](N)Cc1c[nH]c2ccccc12)C(N)=O (H-WK(Trp)RR-NH2) | > 128 µM | > 128 µM | > 128 µM | > 128 µM | > 128 µM | > 128 µM | > 256 µM | > 128 µM |
| H-RRKWWW-NH2 | 64 µM | 16 µM | 128 µM | > 128 µM | 64 µM | 128 µM | > 256 µM | > 128 µM |
| H-WWKRRR-NH2 | > 128 µM | 64 µM | > 128 µM | > 128 µM | > 128 µM | > 128 µM | > 256 µM | > 128 µM |
| H-RRRRKWWW-NH2 | 8 µM | 8 µM | 128 µM | 64 µM | 64 µM | 16 µM | > 256 µM | > 128 µM |
| H-RRRRKWWWWW-NH2 | 8 µM | 4 µM | 32 µM | 16 µM | 8 µM | 32 µM | 45.69 µM | 63.6 µM |
| H-WWWWKRRR-NH2 | 8 µM | 8 µM | 32 µM | 64 µM | 32 µM | 16 µM | > 256 µM | > 128 µM |
| H-RRRRRRKWWWWWW-NH2 | 32 µM | 8 µM | 16 µM | 32 µM | 16 µM | 64 µM | 24.89 µM | 51.5 µM |
| H-RRRRRRKWWWWWWW-NH2 | 8 µM | 8 µM | 32 µM | 32 µM | 16 µM | 32 µM | 19.48 µM | 101 µM |
| H-WWWWWWKRRRRRR-NH2 | 8 µM | 8 µM | 32 µM | 16 µM | 16 µM | 32 µM | 34.63 µM | 45 µM |
| N=C(N)NCCC[C@H](NC(=O)[C@H](CCCCNC(=O)[C@@H](N)Cc1c[nH]c2ccccc12)NC(=O)[C@@H](N)Cc1c[nH]c2ccccc12)C(N)=O (H-Trp-Lys(Trp)-Arg-NH2) | > 128 µM | 128 µM (≈ 86.2 µg/mL) | > 128 µM | > 128 µM | > 128 µM | > 128 µM | > 256 µM | > 128 µM |
| N=C(N)NCCC[C@H](NC(=O)[C@H](CCCNC(=N)N)NC(=O)[C@H](CCCNC(=N)N)NC(=O)[C@H](CCCCNC(=O)[C@@H](N)Cc1c[nH]c2ccccc12)NC(=O)[C@@H](N)Cc1c[nH]c2ccccc12)C(N)=O (H-WK(Trp)RRR-NH2) | > 128 µM | > 128 µM | > 128 µM | > 128 µM | > 128 µM | > 128 µM | > 256 µM | > 128 µM |

The next lines start with results.

| MIC (Staphylococcus aureus) | MIC (Bacillus subtilis) | MIC (Acinetobacter baumannii) | MIC (Klebsiella pneumoniae) | MIC (Escherichia coli) | MIC (Pseudomonas aeruginosa) | Compound | MHC10 (Erythrocyte) | CC50 at 1 h [1] |
| --- | --- | --- | --- | --- | --- | --- | --- | --- |
| 32 µM (≈ 76.3 µg/mL) | 16 µM (≈ 38.2 µg/mL) | 16 µM (≈ 38.2 µg/mL) | 64 µM (≈ 153 µg/mL) | 64 µM (≈ 153 µg/mL) | 16 µM (≈ 38.2 µg/mL) | N=C(N)NCCC[C@H](NC(=O)[C@H](CCCNC(=N)N)NC(=O)[C@@H](N)CCCNC(=N)N)C(=O)NCCCC[C@H](NC(=O)[C@H](CCCNC(=N)N)NC(=O)[C@H](CCCNC(=N)N)NC(=O)[C@@H](N)CCCNC(=N)N)C(=O)N[C@@H](Cc1c[nH]c2ccccc12)C(=O)N[C@@H](Cc1c[nH]c2ccccc12)C(=O)N[C@@H](Cc1c[nH]c2ccccc12)C(=O)N[C@@H](Cc1c[nH]c2ccccc12)C(=O)N[C@@H](Cc1c[nH]c2ccccc12)C(=O)N[C@@H](Cc1c[nH]c2ccccc12)C(=O)N[C@@H](Cc1c[nH]c2ccccc12)C(N)=O (H-RRRK([Arg-Arg-Arg])WWWWWWW-NH2) | 12.98 µM | 53.5 µM |
| 16 µM (≈ 21.3 µg/mL) | 4 µM (≈ 5.31 µg/mL) | > 128 µM | 64 µM (≈ 85 µg/mL) | 16 µM (≈ 21.3 µg/mL) | 16 µM (≈ 21.3 µg/mL) | N=C(N)NCCC[C@H](NC(=O)[C@@H](N)CCCNC(=N)N)C(=O)NCCCC[C@H](NC(=O)[C@H](CCCNC(=N)N)NC(=O)[C@@H](N)CCCNC(=N)N)C(=O)N[C@@H](Cc1c[nH]c2ccccc12)C(=O)N[C@@H](Cc1c[nH]c2ccccc12)C(=O)N[C@@H](Cc1c[nH]c2ccccc12)C(N)=O (H-RRK([Arg-Arg])WWW-NH2) | > 256 µM | > 128 µM |
| 32 µM | 16 µM | 32 µM | 32 µM | 32 µM | 32 µM | H-WWWWWWKRRRRRRR-NH2 | 27.86 µM | 46.6 µM |
| 32 µM (≈ 32.5 µg/mL) | 32 µM (≈ 32.5 µg/mL) | > 128 µM | > 128 µM | > 128 µM | 32 µM (≈ 32.5 µg/mL) | N=C(N)NCCC[C@H](N)C(=O)NCCCC[C@H](NC(=O)[C@@H](N)CCCNC(=N)N)C(=O)N[C@@H](Cc1c[nH]c2ccccc12)C(=O)N[C@@H](Cc1c[nH]c2ccccc12)C(=O)N[C@@H](Cc1c[nH]c2ccccc12)C(N)=O (H-RK(Arg)WWW-NH2) | > 256 µM | > 128 µM |
| > 128 µM | 128 µM (≈ 106 µg/mL) | > 128 µM | > 128 µM | > 128 µM | > 128 µM | N=C(N)NCCC[C@H](N)C(=O)NCCCC[C@H](NC(=O)[C@@H](N)CCCNC(=N)N)C(=O)N[C@@H](Cc1c[nH]c2ccccc12)C(=O)N[C@@H](Cc1c[nH]c2ccccc12)C(N)=O (H-RK(Arg)WW-NH2) | > 256 µM | > 128 µM |
| 8 µM (≈ 16.3 µg/mL) | 8 µM (≈ 16.3 µg/mL) | 32 µM (≈ 65.4 µg/mL) | 32 µM (≈ 65.4 µg/mL) | 16 µM (≈ 32.7 µg/mL) | 32 µM (≈ 65.4 µg/mL) | N=C(N)NCCC[C@H](NC(=O)[C@H](CCCNC(=N)N)NC(=O)[C@H](CCCNC(=N)N)NC(=O)[C@H](CCCNC(=N)N)NC(=O)[C@H](CCCNC(=N)N)NC(=O)[C@H](CCCCNC(=O)[C@H](Cc1c[nH]c2ccccc12)NC(=O)[C@H](Cc1c[nH]c2ccccc12)NC(=O)[C@@H](N)Cc1c[nH]c2ccccc12)NC(=O)[C@H](Cc1c[nH]c2ccccc12)NC(=O)[C@H](Cc1c[nH]c2ccccc12)NC(=O)[C@@H](N)Cc1c[nH]c2ccccc12)C(N)=O (H-WWWK([Trp-Trp-Trp])RRRRR-NH2) | 22.73 µM | 48.2 µM |
| > 128 µM | 64 µM | > 128 µM | > 128 µM | > 128 µM | > 128 µM | H-RRKWW-NH2 | > 256 µM | > 128 µM |
